Starred links: 1 amine or outer side, 2 acyl side, 3 side chain; linkers in the order of their positions; H or OH if unused. Positions of bridges follow the written chain, without caps; N, C: chain ends. Non-standard residues stand in square brackets, D forms with d. Residues, ends and D or L forms follow the SMILES beside them. *: point of attachment. Orn(4R-OH,5R-OH) = O=C([C@H](C[C@@H](O)[C@@H](O)N[*:3])N[*:1])[*:2]; hTyr(3S-OH,4S-OH) = N[C@H](C(=O)O)[C@H](O)[C@@H](O)c1ccc(O)cc1; Pro(3S-OH,4S-Me) = C[C@H]1CN[C@H](C(=O)O)[C@H]1O; Benzoyl(4-octyloxy) = CCCCCCCCOc1ccc(C(=O)*)cc1; Hyp = O=C(O)[C@@H]1C[C@@H](O)CN1
What was measured:
pathogenic fungi = test: Antifungal activity, standard biological test procedures; format: cell-based; settings: cyclic nucleus lacking the linoleoyl side chain
Source text: The compounds of Formula III inhibit the growth of pathogenic fungi as evidenced by standard biological test procedures. The compounds are useful, therefore, for controlling the growth of fungi on environmental surfaces (as an antiseptic) or in treating infections caused by fungi. […] Thus, the compounds are particularly useful in treating infections caused by strains of C. albicans (candidosis). The compounds of Formula III have also shown activity in vitro in agar-plate disc diffusion tests against Trichophyton mentagrophytes, a dermatophytic organism. Activity has also been found in in vitro agar-plate disc-diffusion tests against Saccharomyces pastorianus, and Neurospora crassa. Certain compounds (as shown in Example 6, Table 9) give significant blood levels upon oral administration in mice.

[1] = Blood levels after oral administration in mice; settings: mouse, 416 mg/kg
Description: In this test, mice are gavaged with a dose of 416 mg/kg of the test compound suspended in 33% PEG 400-water. At time intervals, blood samples are taken from the orbital sinus and are assayed for antibiotic activity as follows: A 7 mm. disc containing 20 μl of whole blood is placed on agar seeded with Aspergillus montevidensis A35137. After 40 hours incubation at 30° C. zones of inhibition from the blood samples are compared to a standard obtained from the test compound, and the amount of compound in the blood sample is calculated.

Structure (SMILES)	antifungal activity (pathogenic fungi)	Cmax [1] [ng/mL]
C[C@@H](O)[C@@H]1NC(=O)[C@H]([C@H](O)[C@@H](O)c2ccc(O)cc2)NC(=O)[C@@H]2C[C@@H](O)CN2C(=O)[C@H]([C@@H](C)O)NC(=O)[C@@H](N)C[C@@H](O)[C@@H](O)NC(=O)[C@@H]2[C@@H](O)[C@@H](C)CN2C1=O [A-30912A nucleus] (H-[Orn(4R-OH,5R-OH)]T[Hyp][hTyr(3S-OH,4S-OH)]T[Pro(3S-OH,4S-Me)]; lactam 1-C)	substantially devoid of antifungal activity	–
CCCCCCCCOc1ccc(C(=O)N[C@H]2C[C@@H](O)[C@@H](O)NC(=O)[C@@H]3[C@@H](O)[C@@H](C)CN3C(=O)[C@H]([C@@H](C)O)NC(=O)[C@H]([C@H](O)[C@@H](O)c3ccc(O)cc3)NC(=O)[C@@H]3C[C@@H](O)CN3C(=O)[C@H]([C@@H](C)O)NC2=O)cc1 [drawing 181] ({Benzoyl(4-octyloxy)}-[Orn(4R-OH,5R-OH)]T[Hyp][hTyr(3S-OH,4S-OH)]T[Pro(3S-OH,4S-Me)]; lactam 1-C)	–	23000

Source: US4293489A, “Derivatives of A-30912A nucleus” (Eli Lilly and Company, priority 1980, dated 1981)
